In ChEMBL document CHEMBL4334471, “Discovery of 1,8-disubstituted-[1,2,3]triazolo[4,5-c]quinoline derivatives as a new class of Hippo signaling pathway inhibitors” (Bioorg Med Chem Lett, 2019):
pIC50: −log10 of the molar value.

How the values were obtained:
[1] = molecular target: NUAK family SNF1-like kinase 1 (Homo sapiens) (UniProt O60285); experiment: Inhibition of recombinant human ARK5 (2 to end residues) assessed as residual activity at 10 uM using KKKVSRSGLYRSPSMPENLNRPR as substrate incubated for 40 mins in presence of [gamma-33ATP] by scintillation counting based radiometry assay relative to control
[2] = test system: Tyrosine-protein kinase BTK (Homo sapiens), Q06187 [R28H]; experiment: Inhibition of recombinant full length human BTK R28H mutant assessed as residual activity at 10 uM using LSNLYHQGKFLQTFCGSPLYRRR substrate incubated for 40 mins in presence of [gamma-33ATP] by scintillation counting based radiometry assay relative to control
[3] = molecular target: Cyclin-dependent kinase 1/cyclin B1 (Homo sapiens) (UniProt P06493+P14635); experiment: Inhibition of recombinant full length human CDK1/CyclinB assessed as residual activity at 10 uM using Histone H1 as substrate incubated for 40 mins in presence of [gamma-33ATP] by scintillation counting based radiometry assay relative to control; assay type: protein-complex assay
[4] = molecular target: Casein kinase I isoform gamma-2 (Homo sapiens) (UniProt P78368); experiment: Inhibition of recombinant human CK1gamma2 (18 to end residues) assessed as residual activity at 10 uM using KRRRALS(p)VASLPGL as substrate incubated for 40 mins in presence of [gamma-33ATP] by scintillation counting based radiometry assay relative to control
[5] = test system: Epidermal growth factor receptor (Homo sapiens), P00533 [L858R,T790M]; experiment: Inhibition of recombinant human EGFR T790M/L858R mutant (696 to end residues) assessed as residual activity at 10 uM using poly(Glu, Tyr) 4:1 as substrate at 40 mins in presence of [gamma-33ATP] by scintillation counting based radiometry assay relative to control
[6] = molecular target: Tyrosine-protein kinase Fes/Fps (Homo sapiens) (UniProt P07332); experiment: Inhibition of recombinant human FES (2 to end residues) assessed as residual activity at 10 uM using poly(Glu, Tyr) 4:1 as substrate at 40 mins in presence of [gamma-33ATP] by scintillation counting based radiometry assay relative to control
[7] = molecular target: Fibroblast growth factor receptor 4 (Homo sapiens) (UniProt P22455); experiment: Inhibition of recombinant human FGFR4 (442 to 755 residues) assessed as residual activity at 10 uM using poly(Glu, Tyr) 4:1 as substrate at 40 mins in presence of [gamma-33ATP] by scintillation counting based radiometry assay relative to control
[8] = test system: Receptor-type tyrosine-protein kinase FLT3 (Homo sapiens), P36888 [D835Y]; experiment: Inhibition of recombinant human FLT3 D835Y mutant (564 to end residues) assessed as residual activity at 10 uM using EAIYAAPFAKKK as substrate at 40 mins in presence of [gamma-33ATP] by scintillation counting based radiometry assay relative to control
[9] = test system: Hepatocyte growth factor receptor (Homo sapiens), P08581 [M1250T]; experiment: Inhibition of recombinant human MET A1209G/V1290L/M1268T mutant (974 to end residues) assessed as residual activity at 10 uM using KKKGQEEEYVFIE as substrate incubated for 40 mins in presence of [gamma-33ATP by scintillation counting based radiometry assay relative to control
[10] = molecular target: Serine/threonine-protein kinase 24 (Homo sapiens) (UniProt Q9Y6E0); experiment: Inhibition of recombinant human MST3 (1 to 304 residues) assessed as residual activity at 10 uM using ERMRPRKRQGSVR as substrate measured after 40 mins in presence of [gamma33P]ATP by scintillation counting based radiometry assay relative to control
[11] = molecular target: Serine/threonine-protein kinase PAK 1 (Homo sapiens) (UniProt Q13153); experiment: Inhibition of recombinant human PAK1 (150 to end residues) assessed as residual activity at 10 uM using RRRLSFAEPG as substrate measured after 40 mins in presence of [gamma33P]ATP by scintillation counting based radiometry assay relative to control
[12] = test system: Phosphorylase b kinase gamma catalytic chain, liver/testis isoform (Homo sapiens), P15735 [F290L]; experiment: Inhibition of recombinant human PhKgamma2 F290L mutant (1 to 301 residues) assessed as residual activity at 10 uM using KKLNRTLSFAEPG as substrate incubated for 40 mins in presence of [gamma33P]ATP by scintillation counting based radiometry assay relative to control
[13] = molecular target: Serine/threonine-protein kinase pim-2 (Homo sapiens) (UniProt Q9P1W9); experiment: Inhibition of recombinant human Pim2 (2 to end residues) assessed as residual activity at 10 uM using RSRHSSYPAG as substrate incubated for 40 mins in presence of [gamma33P]ATP by scintillation counting based radiometry assay relative to control
[14] = molecular target: Protein kinase C alpha type (Homo sapiens) (UniProt P17252); experiment: Inhibition of recombinant human full length PKCalpha assessed as residual activity at 10 uM using histone H1 as substrate incubated for 40 mins in presence of [gamma33P]ATP by scintillation counting based radiometry assay relative to control
[15] = molecular target: Protein kinase C epsilon type (Homo sapiens) (UniProt Q02156); experiment: Inhibition of recombinant human PKCepsilon (2 to end residues) assessed as residual activity at 10 uM using ERMRPRKRQGSVRRRV as substrate incubated for 40 mins in presence of [gamma33P]ATP by scintillation counting based radiometry assay relative to control
[16] = test system: Ribosomal protein S6 kinase alpha-1 (Rattus norvegicus), Q63531 [S637N,G697A]; experiment: Inhibition of recombinant full length rat Rsk1 S637N/G697A mutant assessed as residual activity at 10 uM using KKKNRTLSVA as substrate incubated for 40 mins in presence of [gamma33P]ATP by scintillation counting based radiometry assay relative to control
[17] = molecular target: Proto-oncogene tyrosine-protein kinase Src (Homo sapiens) (UniProt P12931); experiment: Inhibition of recombinant human SRC (1 to 530 residues) assessed as residual activity at 10 uM using GGEEEEYFELVKK as substrate incubated for 40 mins in presence of [gamma33P]ATP by scintillation counting based radiometry assay relative to control
Homo sapiens = organism: Homo sapiens; experiment: Inhibition of activated recombinant human TEC F514V mutant activated (174 to end residues) assessed as residual activity at 10 uM using EFPIYDFLPAKKK as substrate incubated for 40 mins in presence of [gamma33P]ATP by scintillation counting based radiometry assay relative to control
[18] = molecular target: Serine-protein kinase ATM (Homo sapiens) (UniProt Q13315); experiment: Inhibition of recombinant full-length human ATM assessed as residual activity at 10 uM using GST-cMyc-p53 as substrate measured after 40 mins by ELISA relative to control
[19] = molecular target: Serine/threonine-protein kinase 3 (Homo sapiens, UniProt Q13188); experiment: Inhibition of recombinant human MST2 (2 to end residues) assessed as residual activity using myelin basic protein as substrate measured after 40 mins in presence of [gamma33P]ATP by scintillation counting based radiometry assay
Chain of Serine/threonine-protein kinase 3 (Q13188 whole entry): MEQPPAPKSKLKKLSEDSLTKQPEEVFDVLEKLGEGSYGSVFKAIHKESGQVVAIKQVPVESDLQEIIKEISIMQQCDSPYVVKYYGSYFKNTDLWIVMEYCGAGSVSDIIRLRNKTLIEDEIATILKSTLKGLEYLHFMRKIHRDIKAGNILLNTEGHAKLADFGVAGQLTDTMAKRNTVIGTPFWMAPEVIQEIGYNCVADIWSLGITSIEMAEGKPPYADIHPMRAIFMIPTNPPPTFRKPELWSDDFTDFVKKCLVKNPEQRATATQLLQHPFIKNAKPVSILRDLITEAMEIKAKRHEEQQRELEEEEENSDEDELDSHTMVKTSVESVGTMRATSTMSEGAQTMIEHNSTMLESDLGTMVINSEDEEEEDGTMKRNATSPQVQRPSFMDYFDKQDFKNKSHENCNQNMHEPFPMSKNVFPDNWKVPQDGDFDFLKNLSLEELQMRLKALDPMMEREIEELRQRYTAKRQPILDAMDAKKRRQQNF

Chain of Casein kinase I isoform gamma-2 (Homo sapiens) (P78368 whole entry, looked up, canonical isoform): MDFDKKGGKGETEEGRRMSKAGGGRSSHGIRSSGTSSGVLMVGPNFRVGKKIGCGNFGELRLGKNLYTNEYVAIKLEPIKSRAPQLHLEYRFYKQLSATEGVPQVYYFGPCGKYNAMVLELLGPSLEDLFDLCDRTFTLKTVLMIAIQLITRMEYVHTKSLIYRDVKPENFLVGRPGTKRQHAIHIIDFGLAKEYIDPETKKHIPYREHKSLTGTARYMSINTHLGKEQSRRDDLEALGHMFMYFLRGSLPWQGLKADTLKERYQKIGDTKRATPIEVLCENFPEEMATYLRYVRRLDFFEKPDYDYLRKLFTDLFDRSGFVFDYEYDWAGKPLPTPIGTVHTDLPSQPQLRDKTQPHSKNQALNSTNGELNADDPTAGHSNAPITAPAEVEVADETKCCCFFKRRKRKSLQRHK
Chain of Tyrosine-protein kinase Fes/Fps (Homo sapiens) (P07332 whole entry, the tested form may be a part): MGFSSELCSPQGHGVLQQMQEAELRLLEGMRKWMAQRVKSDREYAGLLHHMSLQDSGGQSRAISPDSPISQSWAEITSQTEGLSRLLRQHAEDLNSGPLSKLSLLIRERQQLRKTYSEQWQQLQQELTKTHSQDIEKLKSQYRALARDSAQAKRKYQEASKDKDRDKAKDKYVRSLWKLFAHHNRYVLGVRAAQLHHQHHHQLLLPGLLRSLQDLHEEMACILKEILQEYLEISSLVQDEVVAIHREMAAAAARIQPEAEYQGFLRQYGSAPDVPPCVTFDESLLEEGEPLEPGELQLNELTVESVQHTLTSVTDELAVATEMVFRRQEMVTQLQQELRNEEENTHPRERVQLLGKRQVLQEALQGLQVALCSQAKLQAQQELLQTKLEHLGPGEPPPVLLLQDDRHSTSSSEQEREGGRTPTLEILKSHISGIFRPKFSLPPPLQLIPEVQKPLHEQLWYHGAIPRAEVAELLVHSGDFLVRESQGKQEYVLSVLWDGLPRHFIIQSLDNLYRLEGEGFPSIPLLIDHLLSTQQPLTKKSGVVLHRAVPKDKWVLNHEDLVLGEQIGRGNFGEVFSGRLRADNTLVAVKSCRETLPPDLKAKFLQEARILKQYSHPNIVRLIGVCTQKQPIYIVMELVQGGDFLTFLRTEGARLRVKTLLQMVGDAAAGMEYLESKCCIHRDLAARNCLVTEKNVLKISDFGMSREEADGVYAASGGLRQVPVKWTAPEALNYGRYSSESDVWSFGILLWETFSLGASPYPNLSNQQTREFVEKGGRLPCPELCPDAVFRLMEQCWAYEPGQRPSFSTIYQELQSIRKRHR
Chain of Tyrosine-protein kinase BTK (Homo sapiens), Q06187 [R28H] (Q06187 whole entry R28H): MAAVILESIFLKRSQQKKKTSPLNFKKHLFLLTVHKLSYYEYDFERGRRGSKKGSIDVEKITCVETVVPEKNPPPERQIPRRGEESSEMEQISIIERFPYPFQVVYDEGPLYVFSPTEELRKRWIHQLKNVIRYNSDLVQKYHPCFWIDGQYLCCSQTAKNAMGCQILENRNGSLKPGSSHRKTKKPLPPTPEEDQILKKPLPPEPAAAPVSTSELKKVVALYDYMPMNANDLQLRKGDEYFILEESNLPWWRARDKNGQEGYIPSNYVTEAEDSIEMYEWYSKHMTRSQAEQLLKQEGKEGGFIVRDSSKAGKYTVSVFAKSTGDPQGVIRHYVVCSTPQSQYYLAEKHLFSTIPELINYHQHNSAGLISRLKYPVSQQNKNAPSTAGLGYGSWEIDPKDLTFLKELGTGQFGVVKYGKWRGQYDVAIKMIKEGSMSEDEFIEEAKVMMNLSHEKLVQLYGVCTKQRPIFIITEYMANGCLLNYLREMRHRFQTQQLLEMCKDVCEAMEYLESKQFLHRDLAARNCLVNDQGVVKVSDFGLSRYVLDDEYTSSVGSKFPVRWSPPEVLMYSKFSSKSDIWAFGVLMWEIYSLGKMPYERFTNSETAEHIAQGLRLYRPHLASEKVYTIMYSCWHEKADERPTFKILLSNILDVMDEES
Chain of Fibroblast growth factor receptor 4 (Homo sapiens) (P22455 22-802 limits assumed): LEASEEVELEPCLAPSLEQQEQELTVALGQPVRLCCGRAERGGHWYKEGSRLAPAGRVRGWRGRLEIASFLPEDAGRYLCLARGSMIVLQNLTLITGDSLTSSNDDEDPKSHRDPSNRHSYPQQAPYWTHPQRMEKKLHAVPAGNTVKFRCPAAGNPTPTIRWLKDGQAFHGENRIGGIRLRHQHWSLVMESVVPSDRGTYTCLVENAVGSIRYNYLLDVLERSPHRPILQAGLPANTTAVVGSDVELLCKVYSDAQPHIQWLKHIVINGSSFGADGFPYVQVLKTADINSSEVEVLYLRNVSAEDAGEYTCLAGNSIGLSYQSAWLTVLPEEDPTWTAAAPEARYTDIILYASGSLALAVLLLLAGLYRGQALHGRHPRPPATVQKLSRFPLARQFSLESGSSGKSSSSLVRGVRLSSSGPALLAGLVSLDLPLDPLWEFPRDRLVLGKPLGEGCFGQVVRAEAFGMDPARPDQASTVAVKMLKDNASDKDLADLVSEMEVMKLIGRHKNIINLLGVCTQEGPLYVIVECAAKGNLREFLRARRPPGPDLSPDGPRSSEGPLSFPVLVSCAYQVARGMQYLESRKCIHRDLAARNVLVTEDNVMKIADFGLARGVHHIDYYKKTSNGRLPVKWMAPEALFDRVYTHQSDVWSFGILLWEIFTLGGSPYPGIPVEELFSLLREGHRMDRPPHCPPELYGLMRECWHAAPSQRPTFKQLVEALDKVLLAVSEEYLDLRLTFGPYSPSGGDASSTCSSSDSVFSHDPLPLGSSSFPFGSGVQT
Chain of Phosphorylase b kinase gamma catalytic chain, liver/testis isoform (Homo sapiens), P15735 [F290L] (P15735 whole entry F290L, the tested form may be a part, canonical isoform): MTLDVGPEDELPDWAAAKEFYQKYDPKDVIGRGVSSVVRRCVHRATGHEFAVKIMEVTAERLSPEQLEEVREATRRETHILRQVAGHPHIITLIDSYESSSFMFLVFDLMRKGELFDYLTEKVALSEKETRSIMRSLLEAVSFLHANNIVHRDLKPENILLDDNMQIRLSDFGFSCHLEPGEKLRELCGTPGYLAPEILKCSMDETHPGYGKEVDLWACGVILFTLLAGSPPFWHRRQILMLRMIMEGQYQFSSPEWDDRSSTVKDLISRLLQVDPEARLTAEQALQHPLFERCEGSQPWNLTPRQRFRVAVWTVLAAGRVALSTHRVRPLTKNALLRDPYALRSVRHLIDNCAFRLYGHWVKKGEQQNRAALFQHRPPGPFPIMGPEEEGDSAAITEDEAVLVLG
Chain of Serine/threonine-protein kinase pim-2 (Homo sapiens) (Q9P1W9 whole entry, looked up): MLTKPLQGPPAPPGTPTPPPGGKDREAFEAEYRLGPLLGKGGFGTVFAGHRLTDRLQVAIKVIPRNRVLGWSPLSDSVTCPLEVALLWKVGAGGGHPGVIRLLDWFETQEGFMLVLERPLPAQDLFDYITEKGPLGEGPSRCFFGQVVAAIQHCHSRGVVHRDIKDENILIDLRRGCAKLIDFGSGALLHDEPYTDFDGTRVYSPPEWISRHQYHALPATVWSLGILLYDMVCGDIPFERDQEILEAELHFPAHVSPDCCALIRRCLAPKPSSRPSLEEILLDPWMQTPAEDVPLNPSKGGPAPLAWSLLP
Chain of Cyclin-dependent kinase 1/cyclin B1 (Homo sapiens) (P06493 whole entry, looked up, canonical isoform): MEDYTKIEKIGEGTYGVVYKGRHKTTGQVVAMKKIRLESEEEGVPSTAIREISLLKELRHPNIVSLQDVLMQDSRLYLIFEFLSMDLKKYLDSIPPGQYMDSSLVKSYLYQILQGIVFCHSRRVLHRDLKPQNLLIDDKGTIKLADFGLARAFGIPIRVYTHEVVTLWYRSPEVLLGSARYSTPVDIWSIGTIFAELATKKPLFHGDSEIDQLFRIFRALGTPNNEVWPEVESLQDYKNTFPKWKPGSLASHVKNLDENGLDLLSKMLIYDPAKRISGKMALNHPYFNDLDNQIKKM
Chain of Cyclin-dependent kinase 1/cyclin B1 (Homo sapiens) (P14635 whole entry, looked up, canonical isoform): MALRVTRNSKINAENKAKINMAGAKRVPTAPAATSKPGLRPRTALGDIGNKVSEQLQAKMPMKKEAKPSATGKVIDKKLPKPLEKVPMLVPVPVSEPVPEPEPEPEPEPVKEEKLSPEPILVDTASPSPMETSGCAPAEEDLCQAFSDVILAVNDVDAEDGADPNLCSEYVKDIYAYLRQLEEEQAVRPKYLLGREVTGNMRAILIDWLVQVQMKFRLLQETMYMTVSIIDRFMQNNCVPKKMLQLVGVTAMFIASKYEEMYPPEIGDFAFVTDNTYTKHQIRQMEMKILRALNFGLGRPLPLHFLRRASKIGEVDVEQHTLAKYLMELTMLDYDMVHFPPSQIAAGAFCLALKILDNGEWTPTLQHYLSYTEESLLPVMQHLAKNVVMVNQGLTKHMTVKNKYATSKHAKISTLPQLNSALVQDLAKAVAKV

C[C@@H](c1ccccc1)n1nnc2cnc3ccc(-c4cnc5[nH]ccc5c4)cc3c21
Activity [1]: 73%
Activity [2]: 116%
Activity [3]: 63%
Activity [4]: 73%
Activity [5]: 57%
Activity [6]: 41%
Activity [7]: 68%
Activity [8]: 42%
Activity [9]: 45%
Activity [10]: 90%
Activity [11]: 92%
Activity [12]: 65%
Activity [13]: 80%
Activity [14]: 77%
Activity [15]: 97%
Activity [16]: 71%
Activity [17]: 15%
Activity (Homo sapiens): 35%
Activity [18]: 0%
pIC50 [19]: < 5.00
